Assay results published in article PMC13372681, “A natural depsipeptide antibiotic binds the E-site of the bacterial ribosome” (Nature, 2026).
≈ marks a conversion by molar mass, not a printed value. Read-outs that look alike come from different tables or passages of the source. Where a SMILES comes first, the peptide text is derived from it. Bridges are numbered along the chain shown (N, C = ends). [ ]: non-standard residue; d: D form. dOrn = NCCC[C@@H](N)C(=O)O

Columns and labels:
E. coli ΔtolC ΔbamB = details: broth microdilution
S. aureus USA 300 = details: USA 300
E. coli C1508 = details: broth microdilution, MDR clinical isolate
M. tuberculosis H37Ra = details: Middlebrook 7H9 + 10% OADC + 0.05% Tween-80
[1] = tested on: M. bovis BCG Pasteur ATCC 35734; details: Middlebrook 7H9 + 10% OADC + 0.05% Tween-80
E. coli ribosome = test: Translocation assay; type: biochemical; details: 250 μM negamycin; pre-translocation complex, toeprint read-out
Procedure: In vitro translocation assay was carried out using the model mRNA MFK (Supplementary Table 9) as described. The mRNA was prepared by in vitro transcription of a PCR product amplified using the primers MF_F1, MF_F2, and MF_R (Supplementary Table 8). A 4.5 μl reaction containing 1 μM E. coli ribosomes, 0.5 μM mRNA, 1 μM tRNAi^Met, 0.5 μM radiolabelled NV1 primer (Supplementary Table 8), 2 U μl^−1 RiboLock RNase Inhibitor (Thermo), and antibiotic tested (50 μM MKM or 250 μM negamycin) in pure system buffer (PSB; 9 mM Mg(CH3COO)2, 5 mM K3PO4, 95 mM potassium glutamate, 5 mM NH4Cl, 0.5 mM CaCl2, 1 mM spermidine, 8 mM putrescine, 1 mM dithiothreitol, pH 7.3)[90] was incubated for 20 min at 37 °C. Then N-acetyl-Phe-N-tRNA^Phe (ref. [91]), in which amino acid is attached to the A3′ hydroxyl of the tRNA via an amide bond, was added to the final concentration of 2 μM followed by 10 min incubation at 37 °C. After addition of the E. coli EF-G and GTP to the final concentrations of 0.2 μM and 533 μM, respectively and incubation for 5 min at 30 °C, 1 µl of the mixture of AMV reverse transcriptase (Roche) and dNTPs (2.1 U/µl AMV reverse transcriptase and 2 mM dNTPs in PSB) was added, and the reactions were incubated for another 5 min at 30 °C. […]

| SMILES | MIC (E. coli ΔtolC ΔbamB; Ca+ MHB Medium) [µg/mL] | MIC (E. coli ΔtolC ΔbamB; MOPS Minimal Medium) [µg/mL] | MIC (E. coli ΔtolC ΔbamB; RPMI Medium) [µg/mL] | MIC (S. aureus USA 300) [µg/mL] | MIC (E. coli C1508; Ca+ MHB Medium) [µg/mL] | MIC (E. coli C1508; MOPS Minimal Medium) [µg/mL] | MIC (E. coli C1508; RPMI Medium) [µg/mL] | MIC (Bacillus subtilis 168) [µg/mL] | MIC (M. tuberculosis H37Ra) [µg/mL] | MIC [1] [µg/mL] | MIC (S. aureus ATCC 29213) [µg/mL] | inhibition of EF-G-dependent translocation (E. coli ribosome) |
| --- | --- | --- | --- | --- | --- | --- | --- | --- | --- | --- | --- | --- |
| C[C@@H](O)[C@@H]1NC(=O)[C@@H](CCCNC(=N)N)NC(=O)[C@@H](CCCNC(=N)N)NC(=O)[C@@H](CC(N)=O)NC(=O)[C@@H](NC(=O)[C@@H](Cc2ccccc2)NC(=O)[C@@H](CCCN)NC(=O)[C@@H](CCCNC(=N)N)NC(=O)[C@@H](N)CCCNC(=N)N)[C@@H](C)OC(=O)[C@H](Cc2c[nH]cn2)NC1=O [MKM-E] (H-R[dR][dOrn][dF]T[dN][dR][dR]TH; ester 5-C; N-terminus assumed) | 2 (≈ 1.49 µM) | 0.5 (≈ 0.373 µM) | <0.5 | 16 (≈ 11.9 µM) | 8 (≈ 5.97 µM) | 1 (≈ 0.747 µM) | 1 (≈ 0.747 µM) | 32 (≈ 23.9 µM) | 1 | 1 | 32 (≈ 23.9 µM) | – |
| C[C@@H](O)[C@@H]1NC(=O)[C@@H](CCCNC(=N)N)NC(=O)[C@@H](CCCNC(=N)N)NC(=O)[C@@H](CC(N)=O)NC(=O)[C@@H](NC(=O)[C@@H](Cc2ccccc2)NC(=O)[C@@H](CCCNC(=N)N)NC(=O)[C@H](N)CCCNC(=N)N)[C@@H](C)OC(=O)[C@H](Cc2c[nH]cn2)NC1=O [MKM-B] (H-[dR][dR][dF]T[dN][dR][dR]TH; ester 4-C) | 4 (≈ 3.26 µM) | 1 (≈ 0.816 µM) | 1 (≈ 0.816 µM) | 64 (≈ 52.2 µM) | 16 (≈ 13.1 µM) | 4 (≈ 3.26 µM) | 4 (≈ 3.26 µM) | 32 (≈ 26.1 µM) | 0.25 | 0.25 | 32 (≈ 26.1 µM) | – |
| CN(CC(=O)O)NC(=O)C[C@H](N)C[C@@H](O)CN [negamycin] | – | – | – | – | – | – | – | – | – | – | – | notably inhibited |
